Experimental data: patent publication US10532066B2, “Surfactant lipids, compositions thereof, and uses thereof” (National Jewish Health, priority 2007, dated 2020)

Tests used:
[1] = test system: differentiated U937 cells; assay: LPS-induced TNF-α secretion by differentiated U937 cells; type: cell-based, human; settings: LPS 10 ng/ml, 6 h, liposomes; LPS without phospholipid = 100%
Method: (§1) FIG. 1. Anionic phospholipids inhibit inflammatory mediator production induced by LPS. Liposomes composed of sphingomyelin (SM), phosphatidylethanolamine (PE) dipalmitoyl-phosphatidylcholine ((DPPC), phosphatidylserine (PS), palmitoyl-oleoyl-phosphatidylglycerol (POPG) and phosphatidylinositol (PI) were formed by bath-sonication for 30 min at room temperature. LPS (10 ng/ml) and different concentrations of phospholipids were added to monolayer cultures of differentiated U937 cells (A), or primary rat alveolar macrophages (B). At 6 h after stimulation, media were collected and secreted TNF-α levels were determined in U937 cultures. NO production was determined 24 h after stimulating rat alveolar macrophages. LPS stimulation in the absence of phospholipid was set as 100%. […] The average TNF-α production upon LPS stimulation was (8.0±0.54 ng/ml). The average NO production upon LPS stimulation was 12.17±0.27 μM.
(§2) FIG. 2. The inhibitory effect of phosphatidylglycerols on LPS-induced inflammatory mediator production is molecular species specific. PG liposomes were formed by bath-sonication for 30 min at room temperature. LPS (10 ng/ml) and different concentrations of PG were added to monolayer cultures of differentiated U937 cells (A) or rat alveolar macrophages (B). Media TNF-α measurements were performed 6 h after stimulation. Media NO measurements were performed 24 h after stimulation. LPS stimulation without PG was set at 100%. The molecular species of PG shown on the graph are 8:0; dioctanoyl-phosphatidylglycerol, 12:0; dilauroyl-phosphatidylglycerol (DLPG), 14:0; dimyristoyl-phosphatidylglycerol (DMPG), 16:0; dipalmitoyl-phosphatidylglycerol (DPPG), 18:0; distearoyl-phosphatidylglycerol, 16:0/18:1; palmitoyl-oleoyl-phosphatidylglycerol (POPG). […] The average TNF-α production upon LPS stimulation was 11.3±0.7 ng/ml. The average NO production upon LPS stimulation was 10.1±0.6 μM.
FIG. 3. […] Surfactant lipid (SL) and POPG were dried under nitrogen, and hydrated at 37° C. for 1 h. (A) SL and POPG were mixed in organic solvents prior to drying and hydrating and subsequently liposomes were produced. (B) SL and POPG were made as independent populations of liposomes that were subsequently mixed prior to macrophage treatment. 10 ng/ml of LPS and different concentrations of liposome mixtures were added to monolayer cultures of differentiated U937 cells. 6 h after stimulation, media were collected and TNF-α production was determined. LPS stimulation without phospholipid was set as 100%. […] The average TNF-α production upon LPS stimulation was 7.0±0.2 ng/ml.
U937 cells were induced to differentiate by treatment with 10 nM phorbol myristate acetate (PMA) for 48 h. The cells (1.3×10^5/well) were placed in 96-well plates and further incubated in the absence of PMA for 24 h in RPMI 1640 medium containing 10% BGS. Rat alveolar macrophages (5×10^5/well) were incubated in 24-well plates for 2 h after isolation. The indicated concentration of phospholipids was added to the cultures 30 min before adding LPS. After LPS addition cultures were incubated for 6 h at 37° C. at an atmosphere of 95% air and 5% CO2. At the end of the incubation period the medium was collected and assayed for TNF-α concentrations using an ELISA kit.
Surfactant lipids were isolated from the bronchioalveolar lavage of Sprague-Dawley rats, 28 days after intratracheal instillation of 25 mg of silica (˜125 mg/kg). Initially, the surfactant was purified by the method of Hawgood et. al. (25) using NaBr density gradient centrifugation. The purified surfactant was extracted with butanol (26) and segregated into butanol-soluble and -insoluble material.

[2] = test system: primary rat alveolar macrophages; assay: LPS-induced NO production by rat alveolar macrophages; type: cell-based; settings: LPS 10 ng/ml, 24 h, liposomes; LPS without phospholipid = 100%
Method: as §1, §2
Rat alveolar macrophages were isolated from bronchoalveolar lavage fluid (BALF) of Sprague-Dawley rats. The lungs were lavaged with pyrogen-free saline, and alveolar macrophages were sedimented by centrifugation at 150×g×5 min. Isolated macrophages were plated at 5×10^5 cells/well in 24-well plates (Falcon) in RPMI 1640 medium containing 10% BGS. The cells were allowed to adhere for 2 h and then used for the experiments after washing with phosphate-buffered-saline (PBS) to remove the unattached cells.
Nitric oxide (NO) accumulation in the supernatant was determined as previously reported (28). Briefly, rat alveolar macrophages were stimulated with LPS (10 ng/ml) or LPS plus phospholipids for 24 h. Culture supernatants (usually […]) were combined with an equal volume of Greiss reagent, and the samples were incubated at room temperature for 10 min before the absorbance was quantified at 550 nm. With the use of a standard curve, the nmol of NO produced were determined and normalized to total cell number in each sample.

[3] = test system: U937 macrophages; assay: TNFα in U937 macrophages stimulated with smooth LPS, with SP-A and PtdGro; type: cell-based; settings: 100 ng/ml smooth LPS, 6 hours, lipid 20 μg/ml
Method: U937 macrophages were stimulated with 100 ng/ml smooth LPS for 6 hours. The culture medium was harvested and assayed for the presence of TNFα by ELISA. Control cultures received no additions. SP-A was added as indicated at 10 μg/ml. Saturated-(16:0/16:0)-PtdGro was added at 20 μg/ml. Unsaturated-(18:1/18:1)-PtdGro was added at 20 μg/ml.

## CCCCCCCC(=O)OCC(COP(=O)(O)OCC(O)CO)OC(=O)CCCCCCC (stereo not drawn) [8:0, dioctanoyl-phosphatidylglycerol]
[1]
  LPS-induced TNF-α production: failed to antagonize
[2]
  LPS-induced NO production: failed to antagonize

## CCCCCCCCCCCC(=O)OCC(COP(=O)(O)OCC(O)CO)OC(=O)CCCCCCCCCCC (stereo not drawn) [12:0, dilauroyl-phosphatidylglycerol]
[1]
  LPS-induced TNF-α production: modest antagonists

## CCCCCCCCCCCCCCCCCC(=O)OCC(COP(=O)(O)OCC(O)CO)OC(=O)CCCCCCCCCCCCCCCCC (stereo not drawn) [18:0, distearoyl-phosphatidylglycerol]
[1]
  LPS-induced TNF-α production: failed to antagonize
[2]
  LPS-induced NO production: failed to antagonize

## CCCCCCCC/C=C\CCCCCCCC(=O)OC[C@H](COP(=O)(O)OCC(O)CO)OC(=O)CCCCCCC/C=C\CCCCCCCC (stereo partly drawn) [unsaturated-PtdGro, dioleoyl-phosphatidylglycerol]
[3]
  anti-inflammatory effects on LPS stimulated macrophages (TNFα): potent anti-inflammatory effects

## phosphatidylethanolamine [PE]
[1]
  LPS-induced TNF-α production: no significant effect
[2]
  LPS-induced NO production: no significant effect

## phosphatidylserine [PS]
[1]
  LPS-induced TNF-α production: less effective than PI and POPG
[2]
  LPS-induced NO production: less effective than PI and POPG

## sphingomyelin [SM]
[1]
  LPS-induced TNF-α production: no significant effect
[2]
  LPS-induced NO production: no significant effect
